Test system: Endogenous Huntingtin Protein
Experiment: Endogenous Huntingtin Protein Assay (ELISA-based Meso Scale Discovery electrochemiluminescence)
Assay type: cell-based
Settings: MSD electrochemiluminescence, Table 1
Method in brief: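 Sandwich MSD electrochemiluminescence immunoassay. Capture used MW1 (expanded polyglutamine) or MAB2166 antibody coated at 1 μg/mL overnight at 4 °C. Samples were bound overnight at 4 °C, then a rabbit monoclonal detection antibody and SULFO-TAG anti-rabbit, each at 0.25 μg/mL, were applied for 1 h at room temperature.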

IC50 [nM] | SMILES
100 to 500 | Cn1ncc2cc(-c3ccc(-c4cnc(N5CCC(NC(C)(C)C)C5)nn4)c(O)c3)ccc21 (stereo not drawn) [Cpd 208, 2-{3-[3-(tert-butylamino)pyrrolidin-l-yl]-1,2,4-triazin-6-yl}-5-(1-methyl-1H-indazol-5-yl)phenol]
1000 to 3000 | CC(C)(C)NC1CCN(c2ncc(-c3ccc(-c4ncccn4)cc3O)nn2)C1 (stereo not drawn) [Cpd 209, 2-{3-[3-(tert-butylamino)pyrrolidin-l-yl]-1,2,4-triazin-6-yl}-5-(pyrimidin-2-yl)phenol]
≤ 100 | Cn1ncc(-c2ccc(-c3cnc(N4CCC(NC(C)(C)C)C4)nn3)c(O)c2)n1 (stereo not shown) [Cpd 210, 2-{3-[3-(tert-butylamino)pyrrolidin-1-yl]-1,2,4-triazin-6-yl}-5-(2-methyl-2H-1,2,3-triazol-4-yl)phenol]
≤ 100 | Cn1nnc(-c2ccc(-c3cnc(N4CCC(NC(C)(C)C)C4)nn3)c(O)c2)n1 (stereo not shown) [Cpd 211, 2-{3-[3-(tert-butylamino)pyrrolidin-1-yl]-1,2,4-triazin-6-yl}-5-(2-methyl-2H-tetrazol-5-yl)phenol]
100 to 500 | CC(C)(C)NC1CCCN(c2ncc(-c3ccc(-c4cn[nH]c4)cc3O)nn2)C1 (stereo not shown) [Cpd 212, 2-{3-[3-(tert-butylamino)piperidin-1-yl]-1,2,4-triazin-6-yl}-5-(1H-pyrazol-4-yl)phenol]
1000 to 3000 | CC(C)NC1CCN(c2ncc(-c3ccc(-c4ccn(C)n4)cc3O)nn2)C1 (stereo not shown) [Cpd 213, 5-(1-methyl-1H-pyrazol-3-yl)-2-(3-{3-[(propan-2-yl)amino]pyrrolidin-1-yl}-1,2,4-triazin-6-yl)phenol]
≤ 100 | Cn1ccc(-c2ccc(-c3cnc(N4CCC(NC(C)(C)C)C4)nn3)c(O)c2)cc1=O (stereo not shown) [Cpd 214, 4-(4-{3-[3-(tert-butylamino)pyrrolidin-1-yl]-1,2,4-triazin-6-yl}-3-hydroxyphenyl)-1-methylpyridin-2(1H)-one]
100 to 500 | Cn1nnc2nc(-c3ccc(-c4cnc(N5CCC(NC(C)(C)C)C5)nn4)c(O)c3)ccc21 (stereo not shown) [Cpd 215, 2-{3-[3-(tert-butylamino)pyrrolidin1-yl]-1,2,4-triazin-6-yl}-5-(1-methyl-1H-[1,2,3]triazolo[4,5-b]pyridin-5-yl)phenol]
100 to 500 | Cn1cnc(-c2ccc(-c3cnc(N4CCC(NC(C)(C)C)C4)nn3)c(O)c2)cc1=O (stereo not shown) [Cpd 216, 6-(4-{3-[3-(tert-butylamino)pyrrolidin-1-yl]-1,2,4-triazin-6-yl}-3-hydroxyphenyl)-3-methylpyrimidin-4(3H)-one]
≤ 100 | COc1cc(-c2ccc(-c3cnc(N4CCC(NC(C)(C)C)C4)nn3)c(O)c2)ncn1 (stereo not shown) [Cpd 217, 2-{3-[3-(tert-butylamino)pyrrolidin-1-yl]-1,2,4-triazin-6-yl}-5-(6-methoxypyrimidin-4-yl)phenol]
100 to 500 | CNC1CCN(c2ncc(-c3ccc(-n4nccn4)cc3O)nn2)C1 (stereo not shown) [Cpd 218, 2-{3-[3-(methylamino)pyrrolidin-1-yl]-1,2,4-triazin-6-yl}-5-(2H-1,2,3-triazol-2-yl)phenol]
100 to 500 | CNC1CCN(c2ncc(-c3ccc(-n4cc(F)cn4)cc3O)nn2)C1 (stereo not shown) [Cpd 219, 5-(4-fluoro-1H-pyrazol-1-yl)-2-{3-[3-(methylamino)pyrrolidin-1-yl]-1,2,4-triazin-6-yl}phenol]
> 500 | CNC1CCN(c2ncc(-c3ccc(-n4ccnc4)cc3O)nn2)C1 (stereo not shown) [Cpd 220, 5-(1H-imidazol-1-yl)-2-{3-[3-(methylamino)pyrrolidin-1-yl]-1,2,4-triazin-6-yl}phenol]
> 500 | Cn1ncc2cc(-c3ccc(-c4cnc(N5CCC(NC(C)(C)C)C5)nn4)c(O)c3)cnc21 (stereo not shown) [Cpd 221, 2-{3-[3-(tert-butylamino)pyrrolidin-1-yl]-1,2,4-triazin-6-yl}-5-(1-methyl-1H-pyrazolo[3,4-b]pyridin-5-yl)phenol]
100 to 500 | CN1CCC2(CC1)CN(c1ncc(-c3ccc(-c4ccc5c(cnn5C)c4)cc3O)nn1)C2 [Cpd 223]
1000 to 3000 | CN1CCC2(CC1)CN(c1ncc(-c3ccc(-c4cnc5c(cnn5C)c4)cc3O)nn1)C2 [Cpd 224, 2-[3-(7-methyl-2,7-diazaspiro[3.5]nonan-2-yl)-1,2,4-triazin-6-yl]-5-(1-methyl-1H-pyrazolo[3,4-b]pyridin-5-yl)phenol]
≤ 100 | CC(C)(C)NC1CCN(c2ncc(-c3ccc(-c4c[nH]nn4)cc3O)nn2)C1 (stereo not shown) [Cpd 225, 2-{3-[3-(tert-butylamino)pyrrolidin-1-yl]-1,2,4-triazin-6-yl}-5-(1H-1,2,3-triazol-4-yl)phenol]
≤ 100 | CN1CCC2(CC1)CN(c1ncc(-c3ccc(-c4cnn(C)c4)cc3O)nn1)C2 [Cpd 226, 2-[3-(7-methyl-2,7-diazaspiro[3.5]nonan-2-yl)-1,2,4-triazin-6-yl]-5-(1-methyl-1H-pyrazol-4-yl)phenol]

IC50 [nM] | SMILES
≤ 100 | CC(C)NC1CCN(c2ncc(-c3ccc(-c4ccn(C)c(=O)c4)cc3O)nn2)C1 (stereo not shown) [Cpd 227, 4-[3-hydroxy-4-(3-{3-[(propan-2-yl)amino]pyrrolidin-1-yl}-1,2,4-triazin-6-yl)phenyl]-1-methylpyridin-2(1H)-one]
≤ 100 | Cc1cn(-c2ccc(-c3cnc(N4CC5(CCN(C)CC5)C4)nn3)c(O)c2)cn1 [Cpd 228, 2-[3-(7-methyl-2,7-diazaspiro[3.5]nonan-2-yl)-1,2,4-triazin-6-yl]-5-(4-methyl-1H-imidazol-1-yl)phenol]
> 500 | CN1CCC2(CC1)CN(c1ncc(-c3ccc(-n4cc(F)cn4)cc3O)nn1)C2 [Cpd 229, 5-(4-fluoro-1H-pyrazol-1-yl)-2-[3-(7-methyl-2,7-diazaspiro[3.5]nonan-2-yl)-1,2,4-triazin-6-yl]phenol]
> 500 | CN1CCC2(CC1)CN(c1ncc(-c3ccc(-n4cnc(F)c4)cc3O)nn1)C2 [Cpd 230, 5-(4-fluoro-1H-imidazol-1-yl)-2-[3-(7-methyl-2,7-diazaspiro[3.5]nonan-2-yl)-1,2,4-triazin-6-yl]phenol]
100 to 500 | CN1CCC2(CC1)CN(c1ncc(-c3ccc(-n4ccnc4)cc3O)nn1)C2 [Cpd 231, 5-(1H-imidazol-1-yl)-2-[3-(7-methyl-2,7-diazaspiro[3.5]nonan-2-yl)-1,2,4-triazin-6-yl]phenol]
≤ 100 | CN1CCC2(CC1)CN(c1ncc(-c3ccc(-n4nccn4)cc3O)nn1)C2 [Cpd 232, 2-[3-(7-methyl-2,7-diazaspiro[3.5]nonan-2-yl)-1,2,4-triazin-6-yl]-5-(2H-1,2,3-triazol-2-yl)phenol]
1000 to 3000 | CN1CCC2(CC1)CN(c1ncc(-c3ccc(-c4ccn(C)n4)cc3O)nn1)C2 [Cpd 233, 2-[3-(7-methyl-2,7-diazaspiro[3.5]nonan-2-yl)-1,2,4-triazin-6-yl]-5-(1-methyl-1H-pyrazol-3-yl)phenol]
100 to 500 | CC(C)NC1CCN(c2ncc(-c3ccc(-c4cc(=O)n(C)cn4)cc3O)nn2)C1 (stereo not shown) [Cpd 234, 6-[3-hydroxy-4-(3-{3-[(propan-2-yl)amino]pyrrolidin-1-yl}-1,2,4-triazin-6-yl)phenyl]-3-methylpyrimidin-4(3H)-one]
≤ 100 | CC(C)NC1CCN(c2ncc(-c3ccc(-c4cn[nH]c4F)cc3O)nn2)C1 (stereo not shown) [Cpd 235, 5-(5-fluoro-1H-pyrazol-4-yl)-2-(3-{3-[(propan-2-yl)amino]pyrrolidin-1-yl}-1,2,4-triazin-6-yl)phenol]
≤ 100 | CC(C)NC1CCN(c2ncc(-c3ccc(-c4cnn(C)n4)cc3O)nn2)C1 (stereo not shown) [Cpd 236, 5-(2-methyl-2H-1,2,3-triazol-4-yl)-2-(3-{3-[(propan-2-yl)amino]pyrrolidin-1-yl}-1,2,4-triazin-6-yl)phenol]
100 to 500 | CC(C)NC1CCN(c2ncc(-c3ccc(-c4ncns4)cc3O)nn2)C1 (stereo not shown) [Cpd 237, 2-(3-{3-[(propan-2-yl)amino]pyrrolidin-1-yl}-1,2,4-triazin-6-yl)-5-(1,2,4-thiadiazol-5-yl)phenol]
≤ 100 | Cc1cn(-c2ccc(-c3cnc(N[C@H]4CC(C)(C)NC(C)(C)[C@H]4F)nn3)c(O)c2)cn1 [Cpd 239, 2-{3-{[(3S,4S)-3-fluoro-2,2,6,6-tetramethylpiperidin-4-yl]amino}-1,2,4-triazin-6-yl)-5-(4-methyl-1H-imidazol-1-yl)phenol]
≤ 100 | CC1(C)C[C@H](Nc2ncc(-c3ccc(-n4cnc(F)c4)cc3O)nn2)[C@H](F)C(C)(C)N1 [Cpd 240, 5-(4-fluoro-1H-imidazol-1-yl)-2-(3-{[(3S,4S)-3-fluoro-2,2,6,6-tetramethylpiperidin-4-yl]amino}-1,2,4-triazin-6-yl)phenol]
≤ 100 | CN1CCC2(CC1)CN(c1ncc(-c3ccc(-c4ccn(C)c(=O)c4)cc3O)nn1)C2 [Cpd 241, 4-{3-hydroxy-4-[3-(7-methyl-2,7-diazaspiro[3.5]nonan-2-yl)-1,2,4-triazin-6-yl]phenyl}-1-methylpyridin-2(1H)-one]
≤ 100 | CN1CCC2(CC1)CN(c1ncc(-c3ccc(-c4cnn(C)n4)cc3O)nn1)C2 [Cpd 242, 2-[3-(7-methyl-2,7-diazaspiro[3.5]nonan-2-yl)-1,2,4-triazin-6-yl]-5-(2-methyl-2H-1,2,3-triazol-4-yl)phenol]
≤ 100 | COc1cc(-c2ccc(-c3cnc(N4CC5(CCN(C)CC5)C4)nn3)c(O)c2)ncn1 [Cpd 243, 5-(6-methoxypyrimidin-4-yl)-2-[3-(7-methyl-2,7-diazaspiro[3.5]nonan-2-yl)-1,2,4-triazin-6-yl]phenol]
3000 to 9000 | CN1CCC2(CC1)CN(c1ncc(-c3ccc(-c4ncccn4)cc3O)nn1)C2 [Cpd 244, 2-[3-(7-methyl-2,7-diazaspiro[3.5]nonan-2-yl)-1,2,4-triazin-6-yl]-5-(pyrimidin-2-yl)phenol]
≤ 100 | CN1CCC2(CC1)CN(c1ncc(-c3ccc(-c4c[nH]nn4)cc3O)nn1)C2 [Cpd 245, 2-[3-(7-methyl-2,7-diazaspiro[3.5]nonan-2-yl)-1,2,4-triazin-6-yl]-5-(1H-1,2,3-triazol-4-yl)phenol]

SMILES | IC50 [nM]
CN(c1ncc(-c2ccc(-c3cc4cnn(C)c4cn3)cc2O)nn1)C1CC(C)(C)NC(C)(C)C1 [Cpd 222, 5-(1-methyl-1H-pyrazolo[3,4-c]pyridin-5-yl)-2-{3-[methyl(2,2,6,6-tetramethylpiperidin-4-yl)amino]-1,2,4-triazin-6-yl}phenol] | ≤ 100

Reference: patent publication US11780839B2, “Compounds for treating Huntington's disease” (PTC THERAPEUTICS, INC., priority 2018, dated 2023)
